Laboratory results from patent US6025365A, “Chelerythrine and radiation combined tumor therapy” (Arch Development Corp., priority 1997, dated 2000).

Assays:
acidic sphingomyelinase = test: Mixed micellar assay, acidic sphingomyelinase activity in treated SQ-20B cells; format: cell-based, human; conditions: 5 μM chelerythrine 30 minutes then 10 Gy; within 5 minutes of IR
Procedure: (§1) FIG. 5A. […] The mixed micellar assay for sphingomyelinase activity was used to quantitate increased enzymatic activity.
(§2) The mixed micellar sphingomyelinase assay using ^[14] C labeled sphingomyelin was performed as described (Wiegmann et al., 1994) with minor modifications as described herein. Exponentially growing cells 2×10^7 were treated, collected, and lysed in 200 μl of neutral buffer (20 mM Hepes, pH 7.4; 10 mM MgCl2, 2 mM EDTA, 5 mM DTT, […], 10 mM b-glycerolphosphate, 750 μM ATP, 1 mM PMSF, Leupeptin, Pepstatin, 2% Triton X-100) or an acid buffer (pH=5.5, 2% Triton X-100, 1 mM PMSF, Leupeptin, Pepstatin). After incubation for 5 minutes at 4° C., cells were homogenized by sonication and cell debris were removed by low speed centrifugation (800×g). The protein concentration was measured using the BioRad protein assay system (BioRad). Protein (50 μg) was incubated for 2 hours at 37° C. in a buffer (1 ml final volume) containing 20 mM HEPES, 1 mM MgCl2, and 0.9 μl [N-methyl-^14 C sphingomyelin].

neutral sphingomyelinase = test: Mixed micellar assay, neutral sphingomyelinase activity in treated SQ-20B cells; format: cell-based, human; conditions: 5 μM chelerythrine 30 minutes then 10 Gy; within 5 minutes of IR
Procedure: as §1, §2

SQ20-B cells = test: Clonogenic survival / colony formation assay; format: cell-based, human
Procedure: FIG. 2. Chelerythrine chloride enhanced IR-mediated cell killing through divisional death. Clonogenic survival was measured following exposure to increasing concentrations of chelerythrine and ionizing radiation. Cells were plated at cell numbers between about 500 cells/plate and about 2000 cells/plate and treated with 0 μM, 0.5 μM, or 1.0 μM chelerythrine chloride for 30 minutes prior to irradiation. After 2 weeks the colonies were scored for survival if they were composed of more than 50 cells. Results represent the mean of three individual experiments with duplicate or triplicate determinants. Error bars represent +/- the standard error of the means (SEM).
FIG. 5C. […] Closed circles represent radiation alone; closed squares represenet addition of 20 μM C2-Ceramide 30 minutes prior to x-ray.
Exponentially growing SQ20B cultures were trypsinized using 0.05% trypsin+0.02% EDTA. Cells (100 to 50,000) were plated in 100 mm tissue culture dishes. Chelerythrine or C2-ceramide was added 4 hours after plating and irradiated for 30 minutes after the addition of chelerythrine or C2-ceramide. The cells were irradiated using a GE Maxitron 250 x-ray generator operating at 250 kV and 26 mA with a dose rate of 114 cGy/min. After 12 days the cells were fixed and stained with crystal violet following standard procedures (Chmura et al., 1996a; 1996b). Colonies of >50 cells were scored as survivors.
Clonogenic survival was measured following increasing concentrations of chelerythrine chloride alone (0.5-1.5 μM), IR alone (1-9 Gy), or the combined treatment of cells with chelerythrine and IR. […] At a concentration of 500 nM, chelerythrine decreased cell survival to about 80% of untreated control cells (about 20% cell death). The combined treatment of cells with 500 nM of chelerythrine 30 minutes prior to treatment with 3 Gy of radiation decreased cell survival to about 30% of untreated cells (about 70% cell death). […] Cell shrinkage and nuclear condensation, characteristic of apoptosis, were not observed at these concentrations of chelerythrine and IR.

WEHI-231 cells = test: Apoptosis / cell death of WEHI-231 (propidium iodide FACS, gel electrophoresis, DAPI); format: cell-based, murine; conditions: 24 hours; chelerythrine 10 μM or calphostin C 250 nM
Procedure: Cells undergoing apoptosis also shrink in size.
Cells, 5×10^5, were centrifuged at 1000 rpm and resuspended in approximately 100 μl cell culture media. The cell suspension was then mixed with 100 μl of DAPI (4',6-iamidino-2-phenylindole, Sigma D9542, 1 μg/ml in PBT (PBS+1% Triton X-100)). One drop of this mixture was placed on a microslide with a coverslip. The cells were viewed by fluorescence microscopy using an Olympus BX-40 microscope with a 100 Watt Mercury lamp, a 16 or 40 X Fluorite objective, N.A. 0.75, (Leco #1-UB527) and a UV filter cube (ex 330-385 nm, em 420 nm, wide band pass, Leco #U-M536). Images were photographed using an Optronics cooled low-light video camera (Leco #DEI-470TB) to which was attached a 2X coupler (Leco #HR200-CMT). The image was saved to a digital file at 72 dpi.
DNA degradation was assessed as previously described (Gottschalk et al., 1993; 1994). Briefly, following treatment in 100 mm plates or 24 well plates, cells were collected and lysed in 0.5 ml lysis buffer (0.6% SDS+10 mM EDTA, pH 7.0). NaCl was added to a final concentration of 1M, mixed by inversion, incubated for 12 hours at 4° C. and then spun at 14,000 g for 30 minutes. Samples were treated with chloroform (1:1) and precipitated in ethanol prior to electrophoresis in a 3% agarose gel and visualized with ethidium bromide.

[1] = 500 nM chelerythrine 30 minutes prior to 3 Gy

Compound: COc1ccc2c(c[n+](C)c3c4cc5c(cc4ccc23)OCO5)c1OC [chelerythrine, 1,2-dimethoxy-12-methyl[1,3]benzodioxolo[5,6-c]phenanthridinium]
- acidic sphingomyelinase activity, x-rays and chelerythrine (acidic sphingomyelinase): about 170 % of control
- neutral sphingomyelinase activity, x-rays and chelerythrine (neutral sphingomyelinase): about 200 % of control
- cell death, combined treatment (SQ20-B cells; [1]): about 70%
- cell survival, combined treatment (SQ20-B cells; [1]): about 30 % of untreated cells
- cytotoxicity at 0.5 µM (SQ20-B cells; Homo sapiens, SQ20B, read-out: cell death): ~20%
- viability at 0.5 µM (SQ20-B cells; Homo sapiens, SQ20B, 500 nM chelerythrine alone): ~80%
- cell death (WEHI-231 cells): greater than 90%
